Results taken from ChEMBL document CHEMBL3507680, “University of Dundee, Gates Library screen for HepG2 cell viability”.

Experiment: Human HepG2 cell viability assay in 384 well format
Assay type: toxicity, cell-based
Design: dose 125 nL, time 70.5 hour; concentration not given beside the values
Conditions: HepG2 cells, read-out: Inhibition

First: CCN(CC)S(=O)(=O)CCNC(=O)N(C)C(C)c1ccccn1 (stereo not drawn)
Second: CCc1ccc(CN(C)Cc2cnc(S(=O)(=O)CC)n2CCOC)cc1
The cytotoxicity at 70.5 h of the first is lower: -8.05% for the first, -7.48% for the second.

First: Cc1nc(Nc2ncccn2)cc(C2CCCN2Cc2ncc[nH]2)n1 (stereo not drawn)
Second: Cc1cc(C)nc(Nc2cccc(C3CCCN(CC4CC4)C3)n2)n1 (stereo not drawn)
The cytotoxicity at 70.5 h of the first is higher: -2.88% for the first, -5.69% for the second.

First: O=C(Cc1ccsc1)NCC1OCCc2cn(CC3CC3)nc21 (stereo not drawn)
Second: c1ccc(Cn2cc3c(n2)C(CNCC2CCOCC2)OCC3)nc1 (stereo not drawn)
The cytotoxicity at 70.5 h of the first is lower: -2.21% for the first, -1.54% for the second.

Going from O=C(O)C1(Cc2ccc(Cl)cc2)CCN(c2ncccc2F)CC1 to O=C(Cc1ccncc1)N(CCO)CCSc1ccc(Cl)cc1, the cytotoxicity at 70.5 h falls from -4.45% to -12.1%.

First: COCCN1CCC(NCc2c(C(C)C)nn(C)c2N(C)C)CC1
Second: CC(C)N1CCC(NCc2cccnc2N(C)Cc2ccccc2)CC1
The cytotoxicity at 70.5 h of the first is higher: 24.2% for the first, -5.38% for the second.

First: Cc1[nH]ccc1C(=O)Nc1cccc(CN2CCC(CO)CC2)c1
Second: COc1cccc(CNC(=O)N2CCN(Cc3cc(C)on3)CC2)c1
The cytotoxicity at 70.5 h of the first is higher: 27.9% for the first, -20.5% for the second.

Going from COCc1n[nH]c2c1CN(C(=O)c1ccncc1)C2 to CCCc1ccc(C(=O)N2CCc3c(nc(C)nc3N(C)C)C2)cc1, the cytotoxicity at 70.5 h rises from -10.2% to -0.957%.

Compared with Cc1cc(=O)c2ccccc2n1CC1CCN(C(C)C)C1 (stereo not drawn), CC(C)c1nc(C2CCCN2C(=O)CN(C)Cc2ccccc2)no1 (stereo not drawn) is higher in cytotoxicity at 70.5 h: -1.13% for the first, 11.3% for the second.

First: Clc1ccc(OCCNCCn2cccn2)cc1
Second: CN(CCCOc1ccccc1)Cc1nccn1C
The cytotoxicity at 70.5 h of the first is higher: 22.1% for the first, -4.56% for the second.

Going from CN1CCC(c2nnc(CN3CCC(O)CC3)n2C)CC1 to COCc1nc(C2CCN(Cc3nccn3C)CC2)no1, the cytotoxicity at 70.5 h rises from -5.78% to -4.44%.

First: CN(Cc1ccco1)[C@@H]1CN(Cc2cccnc2)C[C@@H]2CCCO[C@@H]21
Second: CN(Cc1ccco1)[C@@H]1CN(Cc2ccsc2)C[C@@H]2CCCO[C@@H]21
The cytotoxicity at 70.5 h of the first is lower: -5% for the first, 2.78% for the second.

Compared with Cc1nc(CN(C)CC2CCCN(CCc3ccc(Cl)cc3)C2)no1 (stereo not drawn), CCn1cnnc1C1CCCN(C(=O)COc2ccc(Cl)cc2)C1 (stereo not drawn) is lower in cytotoxicity at 70.5 h: 0.0181% for the first, -5.18% for the second.

First: CN(C)c1cccc(CNC(=O)Nc2ccc3[nH]nnc3c2)n1
Second: Cc1noc(C)c1C(=O)NCC(c1ccc(F)cc1)N(C)C (stereo not drawn)
The cytotoxicity at 70.5 h of the first is lower: -2.68% for the first, -2.05% for the second.

Going from Cc1ccccc1CNCC(O)c1ccc(OC(C)C)cc1 (stereo not drawn) to Cc1ccccc1CC(C)(C)NC(=O)COc1cccc(C(N)=O)c1, the cytotoxicity at 70.5 h rises from -0.135% to -0.108%.

Compared with CCCNC(=O)C1CCN(Cc2csc(C(C)(C)C)n2)CC1, Cc1ccc2c(c1)c(CNC(=O)C1CCN(C(=O)C3CC3)CC1)nn2C is higher in cytotoxicity at 70.5 h: -9.45% for the first, -3.75% for the second.

Going from CNC(=O)C1Cn2ccnc2C2(CCN(Cc3ccncc3)CC2)O1 (stereo not drawn) to Cc1cc(C)n(CC2CN(CC(=O)Nc3ccncc3)CCO2)n1 (stereo not drawn), the cytotoxicity at 70.5 h rises from -10.9% to -2.52%.

Going from COCCNS(=O)(=O)c1cccc2c1CN(C(=O)c1cc(C)on1)CC2 to CCCNC(=O)N1CCc2ccc(S(=O)(=O)N3CCCC3)cc2C1, the cytotoxicity at 70.5 h falls from -2.31% to -10.1%.

Going from COc1ccc2c(c1)nc1n2[C@@H](CNCc2nccs2)COC1 to CN1CCOC(CNCc2nc(-c3ccccc3)cs2)C1 (stereo not drawn), the cytotoxicity at 70.5 h rises from -13.7% to 9.31%.

Compared with CCc1cc(N[C@H]2CCC[C@H]2CO)n2nccc2n1, CCc1noc(CCC(=O)N[C@@H]2CC[C@@H](n3ccnc3C)[C@@H]2O)n1 is lower in cytotoxicity at 70.5 h: 6% for the first, -1.14% for the second.

Compared with Cc1cccc(CS(=O)(=O)c2nnc(N3CCOCC3)s2)c1, COc1ccc(-c2nnc(C(C)N3CCOCC3)o2)cc1 (stereo not drawn) is lower in cytotoxicity at 70.5 h: 0.983% for the first, -2.92% for the second.

First: Cc1nc(C)n(CC2CCCN2CC(=O)NC2CCOCC2)n1 (stereo not drawn)
Second: Cc1nc(C)n(CC2CCCN2CCCOc2ccc(C#N)cc2)n1 (stereo not drawn)
The cytotoxicity at 70.5 h of the first is higher: 2.61% for the first, -4.85% for the second.

First: Cc1nc(CN2CCC(C(=O)O)(n3ccc(C(C)C)n3)CC2)co1
Second: CN1CCN(C2CCN(Cc3cn4ccccc4n3)CC2)C1=O
The cytotoxicity at 70.5 h of the first is lower: -0.222% for the first, 19.5% for the second.

Going from Cc1cc(C)c(CNc2cnn(CC(O)CN(C)C)c2)c(C)c1 (stereo not drawn) to CCc1c(NCc2ccc(F)cc2)cnn1CC(C)C, the cytotoxicity at 70.5 h rises from -11.8% to -6.17%.

First: N#Cc1cnc(N2Cc3cnn(Cc4ccc(F)cc4)c3C2)nc1N
Second: CC(CO)Nc1ccc(-c2nc(Cc3ccc(F)cc3)no2)cn1 (stereo not drawn)
The cytotoxicity at 70.5 h of the first is lower: -6.63% for the first, -2.07% for the second.

First: COCCC(=O)N1C[C@H]2CN(Cc3cccnc3)C(=O)[C@H]2C1
Second: CC(C)(C)OC(=O)N1CCCCC(NC(=O)CCc2cccnc2)C1 (stereo not drawn)
The cytotoxicity at 70.5 h of the first is higher: 4.13% for the first, -3.57% for the second.

Compared with CCc1nc2c(c(C)c(C)n2Cc2cccnc2)c(N)c1C, c1cncc(CNc2cncc(C3CCCN3)n2)c1 (stereo not drawn) is lower in cytotoxicity at 70.5 h: 0.896% for the first, -8.46% for the second.

First: Cc1nn(-c2ccccc2)nc1C(=O)NCC(c1ccsc1)N(C)C (stereo not drawn)
Second: Cc1ccccc1-n1cc(-c2ccnc(N[C@@H](CO)C(C)C)n2)cn1
The cytotoxicity at 70.5 h of the first is higher: 13.1% for the first, -7.32% for the second.

First: Cc1ccc(C(=O)N2CCC3(CC2)CC(N2CCCC2)C3)cc1
Second: Cn1cccc1C(=O)N1CCc2ncnc(N3CCOCC3)c2CC1
The cytotoxicity at 70.5 h of the first is lower: -10.8% for the first, -9.14% for the second.

Going from COC(=O)CNC(=O)C1(NC(=O)c2ccc3[nH]ncc3c2)CCCC1 to CN(C)CC(=O)N1CCN(C(=O)c2cccc3[nH]ncc23)CC1, the cytotoxicity at 70.5 h falls from 0.707% to -8.09%.

First: COCC(C)NS(=O)(=O)c1ccc(Br)cn1 (stereo not drawn)
Second: COCc1nc(C(=O)NS(=O)(=O)c2ccc(C)s2)cs1
The cytotoxicity at 70.5 h of the first is lower: -11.1% for the first, -4.27% for the second.

Going from Cc1cc(C)n(CC2CCCN2CCc2ccncc2)n1 (stereo not drawn) to Cc1cc(N[C@H]2CCCN(Cc3ccccc3)C2)n2nc(C)cc2n1, the cytotoxicity at 70.5 h falls from 17.9% to 1.66%.

First: COc1ccccc1N1CCN(c2nc(N)nc3[nH]cnc23)CC1
Second: Cc1nc(C(=O)N2CCN(S(C)(=O)=O)CC2)c(-c2ccccc2)s1
The cytotoxicity at 70.5 h of the first is lower: -11.3% for the first, 9.71% for the second.

First: CC(C)NC(=O)[C@@H]1CN(C(=O)C2CC2)C[C@]12Cc1ccccc1C(=O)N2
Second: O=C(C1CC1)N1CC2(CCNCC2)c2cc(F)ccc21
The cytotoxicity at 70.5 h of the first is higher: -3.78% for the first, -11.1% for the second.

Compared with CC(C)(C)OC(=O)N1CCCN1C(=O)c1cccc2cc[nH]c12, CCOc1cccc(C(=O)N2CCCn3nc(CCC(=O)O)cc3C2)c1 is lower in cytotoxicity at 70.5 h: 3.87% for the first, -5.68% for the second.

Going from CC(=O)N1CCN(Cc2nccs2)CC2(CC(=O)N(C)C2)C1 (stereo not drawn) to CC(C)N1CCc2ncn(C)c2C1C(=O)N1CCOCC1 (stereo not drawn), the cytotoxicity at 70.5 h rises from -11.2% to 5.22%.

Going from c1cnc(CC2COCCN(C3CCCCC3)C2)cn1 (stereo not drawn) to c1nc(CCC2CCCN2)cc(N2CCCOCC2)n1 (stereo not drawn), the cytotoxicity at 70.5 h rises from 1.48% to 9.03%.

Going from COCCOC1CCN(C(C(=O)O)c2ccc(OC)c(F)c2)CC1 (stereo not drawn) to CSCC(=O)N1CCC(Oc2cccc(C)c2)CC1, the cytotoxicity at 70.5 h falls from -6% to -7.4%.

Compared with CS(=O)(=O)N1Cc2cnn(CC3CC3)c2C(COCC2CC2)C1 (stereo not drawn), CCc1ccccc1C(=O)N1CCN(S(C)(=O)=O)[C@@H](C)C1 is lower in cytotoxicity at 70.5 h: -6.21% for the first, -9.19% for the second.

First: CS(=O)(=O)c1cn[nH]c1C1CCCCN1C(=O)c1ccsc1 (stereo not drawn)
Second: O=C(c1ccc2nccn2c1)N1CCCC1c1noc(C2CC2)n1 (stereo not drawn)
The cytotoxicity at 70.5 h of the first is higher: -1.64% for the first, -5.7% for the second.

First: O=C(NCCC1COc2ccccc2O1)c1ccc(-c2cc[nH]n2)nc1 (stereo not drawn)
Second: Nc1nccc(C2CN(Cc3ccc(-c4ccccc4C(=O)O)o3)C2)n1
The cytotoxicity at 70.5 h of the first is lower: -4.68% for the first, 2.9% for the second.

Going from CC1CCN(C(=O)CSCc2noc(C(C)C)n2)CC1 to CN(C)CCn1ccnc1C1CCN(C(=O)CCC(F)(F)F)CC1, the cytotoxicity at 70.5 h falls from -4.52% to -7.92%.

First: Cc1nn(C)cc1-c1ccnc(N(C)Cc2ccoc2)n1
Second: CN(C)c1ccc(C(=O)Nc2ccn(CCc3ccncc3)n2)cc1
The cytotoxicity at 70.5 h of the first is lower: -3.89% for the first, 15% for the second.

Compared with COc1ccccc1OCC(=O)NCC(C)(O)c1ccccc1 (stereo not drawn), CN1CCN(CC(NCc2ccc(F)cc2)c2ccccc2)CC1 (stereo not drawn) is higher in cytotoxicity at 70.5 h: -12.5% for the first, 17.2% for the second.

Compared with Cc1nn(C)c2ncnc(NCc3nncn3C3CCCCC3)c12, OC1CCN(CCCn2ccnc2-c2c[nH]cn2)CC1 is higher in cytotoxicity at 70.5 h: -6.04% for the first, -5.95% for the second.

Compared with CN(CCc1ccccc1)Cc1cc(C(=O)N2CCCC2(C)C)no1, O=C(NCC1COCCO1)c1csc(Cc2ccccc2)n1 (stereo not drawn) is lower in cytotoxicity at 70.5 h: 8.4% for the first, -4.7% for the second.

First: O=C(Cc1ccc(F)cc1)NCCNS(=O)(=O)C1CCCC1
Second: NC(=O)CCNC(=O)Cc1cccc(I)c1
The cytotoxicity at 70.5 h of the first is lower: -8.77% for the first, 16.7% for the second.

Compared with CCn1nccc1C(=O)NC(Cn1cccn1)C(C)(C)C (stereo not drawn), O=C(c1cccc2ccnn12)N1CCCC1Cn1cccn1 (stereo not drawn) is lower in cytotoxicity at 70.5 h: 2.9% for the first, -2.56% for the second.

Going from CC(=O)N1CCC(c2nccnc2-c2ccc(F)cc2)CC1 to CN(Cc1cccc(Cl)c1)C(=O)Cn1nc(-c2ccc(F)cc2)oc1=O, the cytotoxicity at 70.5 h falls from -0.029% to -2.8%.

Compared with CC(c1nc(C2CC2)no1)N1CCN(Cc2ccc(C#N)cc2)CC1 (stereo not drawn), CCn1ccnc1CN1CCN(CC(O)c2ccc(OC)cc2)CC1 (stereo not drawn) is higher in cytotoxicity at 70.5 h: 5.31% for the first, 12.3% for the second.

Compared with O=C(Nc1nncs1)N(Cc1cccc(F)c1)C1CC1, CC(NC(=O)CCOc1cccc(F)c1)c1nnc2n1CCC2 (stereo not drawn) is higher in cytotoxicity at 70.5 h: -5.56% for the first, -2.58% for the second.

First: CN(C(=O)c1ccn(C)n1)[C@@H]1CCC[C@@H](Oc2ccccc2)[C@@H]1O
Second: O[C@@H]1C[C@@H](c2nc(Cc3ccccc3)no2)N(CC2CC2)C1
The cytotoxicity at 70.5 h of the first is lower: -4.51% for the first, 2.65% for the second.

First: c1ccc(OCc2noc3c2CN(c2ncccn2)CC3)nc1
Second: Fc1cccc(N2CCCC3(C2)CN(c2ncccn2)CCO3)c1 (stereo not drawn)
The cytotoxicity at 70.5 h of the first is lower: -6.14% for the first, -0.813% for the second.

Compared with O=C(O)[C@@H]1CN(C(=O)CSCCN2CCCC2)C[C@H]1c1ccccc1, O=C([C@H]1CCS(=O)(=O)[C@@H]2CN(CCc3ccccc3)C[C@H]12)N1CCCC1 is lower in cytotoxicity at 70.5 h: 1.16% for the first, -1.64% for the second.

Going from Cc1nc(CN(C)S(=O)(=O)c2ccccc2C(F)(F)F)no1 to CCC(C(=O)NCCc1nc(C)cc(C(F)(F)F)n1)n1cccn1 (stereo not drawn), the cytotoxicity at 70.5 h rises from -5.33% to 20%.

Going from Cn1cc(CN2C[C@@H](F)[C@@H](OCc3nc4cnccc4[nH]3)C2)cn1 to O=C(NCCNc1cc(N2CCCC2)cnn1)Nc1ccccc1F, the cytotoxicity at 70.5 h falls from -1.11% to -2.71%.

Going from CNC(=O)C1(C)CN(S(=O)(=O)c2cccc(OC)c2)CCO1 (stereo not drawn) to CC(=O)c1cccc(NC(=O)CCn2nc(-c3cccs3)oc2=O)c1, the cytotoxicity at 70.5 h falls from 22.5% to -18.2%.

Molecule CC(C)(CN1CCC2(CCCNC2)C1)N1CCOCC1 (stereo not drawn) has a cytotoxicity at 70.5 h of 8.57%.
